Measurements as given in BindingDB's records for doi:10.1016/j.ejmech.2011.02.067 (University of Lisbon, 2011).
pIC50: −log10 of the molar value.

Test: Inhibition of human recombinant caspase-3 expressed in Saccharomyces cerevisiae CG379 assessed as growth stimulation after 2 days

pIC50: 4.45
SMILES: CC(C)[C@H](NC(=O)OCc1ccccc1)C(=O)N[C@H](C=CS(C)(=O)=O)CC(=O)O [(S)-3-((S)-2-(benzyloxycarbonylamino)-3-methylbutanamido)-5-(methylsulfonyl)pent-4-enoic acid]
